From patent US20200032271A1, “COMBINATION THERAPY WITH LIPOSOMAL ANTISENSE OLIGONUCLEOTIDES” (Bio-Path Holdings, Inc., priority 2016, published 2020)
[PEt] = P-ethoxy (ethyl phosphotriester) internucleoside linkage

Test: Adverse events in study 2003-0578 (NCI CTCAE grading)
Details: all treatment groups

BP1001: liposome-incorporated P-ethoxy antisense oligodeoxynucleotide (5′-ATATTTGGCGATGGCTTC-3′, SEQ ID NO: 1) specific to grb2 mRNA, in neutral DOPC liposomes (DNA, all [PEt], methylation of C not given here; incorporated in neutral DOPC liposomes)
AML progression, number of patients (AML at enrollment (n = 30)): 19
Abdominal Pain ≥Grade 3, number of patients (AML at enrollment (n = 30)): 1
Acidosis ≥Grade 3, number of patients (AML at enrollment (n = 30)): 3
Acute kidney injury ≥Grade 3, number of patients (AML at enrollment (n = 30)): 3
Asthenia ≥Grade 3, number of patients (AML at enrollment (n = 30)): 1
Back Pain ≥Grade 3, number of patients (AML at enrollment (n = 30)): 1
Blood and lymphatic system disorders ≥Grade 3, number of patients (AML at enrollment (n = 30)): 10
Cardiac disorders ≥Grade 3, number of patients (AML at enrollment (n = 30)): 1
Cataract ≥Grade 3, number of patients (AML at enrollment (n = 30)): 1
Dyspnea ≥Grade 3, number of patients (AML at enrollment (n = 30)): 3
Extremity Lower Edema ≥Grade 3, number of patients (AML at enrollment (n = 30)): 1
Eye disorders ≥Grade 3, number of patients (AML at enrollment (n = 30)): 1
Febrile neutropenia ≥Grade 3, number of patients (AML at enrollment (n = 30)): 3
Gastrointestinal disorders ≥Grade 3, number of patients (AML at enrollment (n = 30)): 1
General disorders and administration site conditions ≥Grade 3, number of patients (AML at enrollment (n = 30)): 4
Hallucinations ≥Grade 3, number of patients (AML at enrollment (n = 30)): 1
Heart failure ≥Grade 3, number of patients (AML at enrollment (n = 30)): 1
Hepatic failure ≥Grade 3, number of patients (AML at enrollment (n = 30)): 2
Hepatobiliary disorders ≥Grade 3, number of patients (AML at enrollment (n = 30)): 2
Hypocalcemia ≥Grade 3, number of patients (AML at enrollment (n = 30)): 1
Hypoglycemia ≥Grade 3, number of patients (AML at enrollment (n = 30)): 1
Hypokalemia ≥Grade 3, number of patients (AML at enrollment (n = 30)): 3
Hyponatremia ≥Grade 3, number of patients (AML at enrollment (n = 30)): 1
Hypotension ≥Grade 3, number of patients (AML at enrollment (n = 30)): 3
Hypovolemia ≥Grade 3, number of patients (AML at enrollment (n = 30)): 1
Hypoxia ≥Grade 3, number of patients (AML at enrollment (n = 30)): 4
Investigations ≥Grade 3, number of patients (AML at enrollment (n = 30)): 2
Leukocytosis ≥Grade 3, number of patients (AML at enrollment (n = 30)): 6
Metabolism and nutritional disorders ≥Grade 3, number of patients (AML at enrollment (n = 30)): 8
Multi-organ failure ≥Grade 3, number of patients (AML at enrollment (n = 30)): 2
Musculoskeletal and connective tissue disorders ≥Grade 3, number of patients (AML at enrollment (n = 30)): 1
Neoplasms benign, malignant, and unspecified (incl. cysts and polyps) ≥Grade 3, number of patients (AML at enrollment (n = 30)): 2
Patients with AEs ≥Grade 3, number of patients (AML at enrollment (n = 30)): 23
Penile Pain ≥Grade 3, number of patients (AML at enrollment (n = 30)): 1
Platelet count decreased ≥Grade 3, number of patients (AML at enrollment (n = 30)): 2
Pleural Effusions ≥Grade 3, number of patients (AML at enrollment (n = 30)): 1
Pneumonia ≥Grade 3, number of patients (AML at enrollment (n = 30)): 4
Psychiatric disorders ≥Grade 3, number of patients (AML at enrollment (n = 30)): 1
Renal and urinary disorders ≥Grade 3, number of patients (AML at enrollment (n = 30)): 3
Reproductive system and breast disorders ≥Grade 3, number of patients (AML at enrollment (n = 30)): 1
Respiratory distress ≥Grade 3, number of patients (AML at enrollment (n = 30)): 2
Respiratory failure ≥Grade 3, number of patients (AML at enrollment (n = 30)): 3
Respiratory, thoracic, and mediastinal disorders ≥Grade 3, number of patients (AML at enrollment (n = 30)): 10
Tumor lysis syndrome ≥Grade 3, number of patients (AML at enrollment (n = 30)): 1
Vascular disorders ≥Grade 3, number of patients (AML at enrollment (n = 30)): 3
AML progression, number of patients (CML at enrollment (n = 5)): 5
Abdominal Pain ≥Grade 3, number of patients (CML at enrollment (n = 5)): 0
Acidosis ≥Grade 3, number of patients (CML at enrollment (n = 5)): 0
Acute kidney injury ≥Grade 3, number of patients (CML at enrollment (n = 5)): 1
Asthenia ≥Grade 3, number of patients (CML at enrollment (n = 5)): 1
Back Pain ≥Grade 3, number of patients (CML at enrollment (n = 5)): 0
Blood and lymphatic system disorders ≥Grade 3, number of patients (CML at enrollment (n = 5)): 2
Cardiac disorders ≥Grade 3, number of patients (CML at enrollment (n = 5)): 1
Cataract ≥Grade 3, number of patients (CML at enrollment (n = 5)): 0
Dyspnea ≥Grade 3, number of patients (CML at enrollment (n = 5)): 0
Extremity Lower Edema ≥Grade 3, number of patients (CML at enrollment (n = 5)): 0
Eye disorders ≥Grade 3, number of patients (CML at enrollment (n = 5)): 0
Febrile neutropenia ≥Grade 3, number of patients (CML at enrollment (n = 5)): 0
Gastrointestinal disorders ≥Grade 3, number of patients (CML at enrollment (n = 5)): 0
General disorders and administration site conditions ≥Grade 3, number of patients (CML at enrollment (n = 5)): 2
Hallucinations ≥Grade 3, number of patients (CML at enrollment (n = 5)): 0
Heart failure ≥Grade 3, number of patients (CML at enrollment (n = 5)): 1
Hepatic failure ≥Grade 3, number of patients (CML at enrollment (n = 5)): 0
Hepatobiliary disorders ≥Grade 3, number of patients (CML at enrollment (n = 5)): 0
Hypocalcemia ≥Grade 3, number of patients (CML at enrollment (n = 5)): 1
Hypoglycemia ≥Grade 3, number of patients (CML at enrollment (n = 5)): 1
Hypokalemia ≥Grade 3, number of patients (CML at enrollment (n = 5)): 1
Hyponatremia ≥Grade 3, number of patients (CML at enrollment (n = 5)): 1
Hypotension ≥Grade 3, number of patients (CML at enrollment (n = 5)): 0
Hypovolemia ≥Grade 3, number of patients (CML at enrollment (n = 5)): 0
Hypoxia ≥Grade 3, number of patients (CML at enrollment (n = 5)): 0
Investigations ≥Grade 3, number of patients (CML at enrollment (n = 5)): 0
Leukocytosis ≥Grade 3, number of patients (CML at enrollment (n = 5)): 2
Metabolism and nutritional disorders ≥Grade 3, number of patients (CML at enrollment (n = 5)): 4
Multi-organ failure ≥Grade 3, number of patients (CML at enrollment (n = 5)): 1
Musculoskeletal and connective tissue disorders ≥Grade 3, number of patients (CML at enrollment (n = 5)): 0
Neoplasms benign, malignant, and unspecified (incl. cysts and polyps) ≥Grade 3, number of patients (CML at enrollment (n = 5)): 0
Patients with AEs ≥Grade 3, number of patients (CML at enrollment (n = 5)): 4
Penile Pain ≥Grade 3, number of patients (CML at enrollment (n = 5)): 0
Platelet count decreased ≥Grade 3, number of patients (CML at enrollment (n = 5)): 0
Pleural Effusions ≥Grade 3, number of patients (CML at enrollment (n = 5)): 0
Pneumonia ≥Grade 3, number of patients (CML at enrollment (n = 5)): 0
Psychiatric disorders ≥Grade 3, number of patients (CML at enrollment (n = 5)): 0
Renal and urinary disorders ≥Grade 3, number of patients (CML at enrollment (n = 5)): 1
Reproductive system and breast disorders ≥Grade 3, number of patients (CML at enrollment (n = 5)): 0
Respiratory distress ≥Grade 3, number of patients (CML at enrollment (n = 5)): 1
Respiratory failure ≥Grade 3, number of patients (CML at enrollment (n = 5)): 0
Respiratory, thoracic, and mediastinal disorders ≥Grade 3, number of patients (CML at enrollment (n = 5)): 1
Tumor lysis syndrome ≥Grade 3, number of patients (CML at enrollment (n = 5)): 2
Vascular disorders ≥Grade 3, number of patients (CML at enrollment (n = 5)): 0
AML progression, number of patients (MDS at enrollment (n = 4)): 2
Abdominal Pain ≥Grade 3, number of patients (MDS at enrollment (n = 4)): 0
Acidosis ≥Grade 3, number of patients (MDS at enrollment (n = 4)): 0
Acute kidney injury ≥Grade 3, number of patients (MDS at enrollment (n = 4)): 0
Asthenia ≥Grade 3, number of patients (MDS at enrollment (n = 4)): 0
Back Pain ≥Grade 3, number of patients (MDS at enrollment (n = 4)): 0
Blood and lymphatic system disorders ≥Grade 3, number of patients (MDS at enrollment (n = 4)): 0
Cardiac disorders ≥Grade 3, number of patients (MDS at enrollment (n = 4)): 1
Cataract ≥Grade 3, number of patients (MDS at enrollment (n = 4)): 0
Dyspnea ≥Grade 3, number of patients (MDS at enrollment (n = 4)): 0
Extremity Lower Edema ≥Grade 3, number of patients (MDS at enrollment (n = 4)): 0
Eye disorders ≥Grade 3, number of patients (MDS at enrollment (n = 4)): 0
Febrile neutropenia ≥Grade 3, number of patients (MDS at enrollment (n = 4)): 0
Gastrointestinal disorders ≥Grade 3, number of patients (MDS at enrollment (n = 4)): 0
General disorders and administration site conditions ≥Grade 3, number of patients (MDS at enrollment (n = 4)): 0
Hallucinations ≥Grade 3, number of patients (MDS at enrollment (n = 4)): 0
Heart failure ≥Grade 3, number of patients (MDS at enrollment (n = 4)): 1
Hepatic failure ≥Grade 3, number of patients (MDS at enrollment (n = 4)): 0
Hepatobiliary disorders ≥Grade 3, number of patients (MDS at enrollment (n = 4)): 0
Hypocalcemia ≥Grade 3, number of patients (MDS at enrollment (n = 4)): 0
Hypoglycemia ≥Grade 3, number of patients (MDS at enrollment (n = 4)): 0
Hypokalemia ≥Grade 3, number of patients (MDS at enrollment (n = 4)): 0
